Data reported in US20250057840A1, “COMPOSITIONS AND METHODS FOR THE TREATMENT OF DISEASES WITH ISOCITRATE DEHYDROGENASE 1/2 MUTATIONS” (Fred Hutchison Cancer Center, priority 2023, published 2025).
Read-outs that look alike come from different tables or passages of the source.

Key:
Assay type in all cases: cell-based, human
[1] = tested on: pS6K and pS6 in IDH WT and IDHm ICC cells; experiment: Western blot of pS6K and pS6 after mTOR inhibitors; details: IDH WT and mutant cells
Protocol: Protein Isolation and Western Blot. Protein lysates were prepared by lysing cells directly in NP-40 buffer supplemented with a protease inhibitor cocktail (Complete EDTA-free, Roche Applied Science), […] and phosphatase inhibitors (Phosphatase Inhibitor Cocktail Sets I and II, Calbiochem). Cells suspended in lysis buffer were sonicated for 10 seconds of active sonication, followed by 20 seconds of rest for 3 cycles at 20% amplitude. The lysate was then centrifuged at 14,000 rpm for 10 mins at 4° C. and the supernatant was harvested. A BCA protein assay kit (Pierce) was used to measure and normalize protein concentration. 30 μg of the cell lysate was run on a 4-20% gradient polyacrylamide gel with SDS (Biorad) and electroblotted onto polyvinylidene difluoride membranes (PVDF) (Millipore). Membranes were blocked in TBS-T with 5% non-fat milk and 0.1% Tween and probed with primary antibodies (Table 1). Horseradish-peroxidase-conjugated secondary antibodies (Vector Biolaboratories) were used to detect membrane-bound proteins. Blots were developed using Clarity Max Western ECL Blotting Substrate (Biorad). Signaling experiments are representative of at least two independent experiments.

[2] = tested on: SNU-1079 cells (IDHm ICC); experiment: MTT proliferation / cell viability assay in SNU-1079; details: S6K inhibitors, 7 days, cell viability by MTT, IDHm, read-out: IC50 (μM) SNU-1079
Protocol: (§1) FIGS. 46A-46C are IC50 curves of IDH WT and mutant cells lines to S6K inhibitors. IDHm cells (SNU-1079 and RBE) and IDH WT cells (CCLP1 and HuCCT1) were treated with S6K inhibitors M2698 (FIG. 46A), PF-4708671 (FIG. 46B), and LY2584702 (FIG. 46C) for 7 days, and the cell viabilities were measured by MTT assay.

[3] = tested on: HuCCT1 cells (IDH WT ICC); experiment: MTT proliferation / cell viability assay in HuCCT1; details: S6K inhibitors, 7 days, cell viability by MTT, IDH WT, read-out: IC50 (μM) HuCCT1
Protocol: as §1

CCLP1 cells (IDH WT ICC) = experiment: MTT cell viability assay in CCLP1; details: S6K inhibitors, 7 days, cell viability by MTT
Protocol: as §1

RBE cells (IDHm ICC) = experiment: MTT proliferation / cell viability assay in RBE; details: S6K inhibitors, 7 days, cell viability by MTT, IDHm, read-out: IC50 (μM) RBE
Protocol: as §1

[4] = tested on: pS6K and pS6 in IDHm lines (RBE, SNU-1079, ICC5); experiment: Okadaic acid rescue of pS6K/pS6; details: okadaic acid 1 μM with dasatinib 100 nM 6 h; time-dependent, rescue as early as 15 mins; all three IDHm lines
Protocol: Cells were probed for phospho- and total SRC, S6K, S6, 4E-BP1 with quantification of pS6K and pS6 are presented below each blot and normalized with corresponding total protein.
Okadaic Acid Rescue. […] Okadaic acid (final concentration 1 μM) was added at the listed time intervals (15, 20, 25, 30 mins) prior to harvest. Protein isolation western blotting were done as previously described. Results are representative of two independent experiments.

Question: `CCC(=O)N1CCN(c2ccc(-n3c(=O)ccc4cnc5ccc(-c6cnc7ccccc7c6)cc5c43)cc2C(F)(F)F)CC1` [Torin1] was tested. Which “pS6K and pS6 after dual mTORC1/mTORC2 inhibitor” value [1] did it give?
Answer: Its value is “suppression of pS6K and pS6 at comparable doses”.

Question: What does the source list for `CCc1cncnc1N1CCN(Cc2nc3ccc(C(F)(F)F)cc3[nH]2)CC1` [PF-4708671]?
Answer: IC50 [2]: 4.28 µM; IC50 [3]: 8.76 µM; IC50 (CCLP1 cells (IDH WT ICC)): 14.6 µM; IC50 (RBE cells (IDHm ICC)): 10.1 µM

Question: How did the “pS6K and pS6 after dual mTORC1/mTORC2 inhibitor” value [1] turn out when `CNC(=O)c1cccc(-c2ccc3c(N4CCOC[C@@H]4C)nc(N4CCOC[C@@H]4C)nc3n2)c1` [AZD2014] was run?
Answer: The value was “suppression of pS6K and pS6 at comparable doses”.

Question: `C=C1[C@@H](O)[C@@H]2O[C@]3(CC[C@H](/C=C/[C@@H](C)[C@@H]4CC(C)=C[C@@]5(O[C@H](C[C@@](C)(O)C(=O)O)CC[C@H]5O)O4)O3)CC[C@H]2O[C@@H]1[C@@H](O)C[C@H](C)[C@H]1O[C@@]2(CCCCO2)CC[C@H]1C` [okadaic acid] was tested. Which “reversal of dasatinib-mediated inhibition of pS6K and pS6” value [4] did it give?
Answer: The value was “reverse dasatinib-mediated inhibition of pS6K and pS6”.

Question: With `Cn1cc(-c2ccc(F)c(C(F)(F)F)c2)nc1C1CCN(c2ncnc3[nH]ncc23)CC1` [LY2584702] as the molecule, how does the IC50 ([2]; Homo sapiens, 168 h) read?
Answer: The IC50 was 3.02 µM.

Question: And the IC50 ([3]; Homo sapiens, HuCCT-1, 168 h)?
Answer: Its IC50 is 17.4 µM.

Question: What about the IC50 (CCLP1 cells (IDH WT ICC); Homo sapiens, CC-LP-1, 168 h) of the same molecule?
Answer: The IC50 was 5.58 µM.

Question: And the IC50 (RBE cells (IDHm ICC); Homo sapiens, 168 h)?
Answer: Its IC50 is 2.2 µM.
